Tested on: P. aeruginosa PA14
Test: Potentiation of gentamycin on pre-formed biofilm
Format: cell-based, Pseudomonas aeruginosa
Conditions: 9 hr biofilm, M63 + arginine; BIF ~1 μM, Gm 0.1 mg/ml; 14 hours of incubation
Experimental: FIG. 10 is a bar graph showing the ability of purified BIF to potentiate the activity of gentamycin (Gm). A biofilm of P. aeruginosa PA14 was pre-formed by growing the bacteria for 9 hrs in minimal M63 medium supplemented with arginine (0.4%) in 96 well dishes (100 μl of medium per well). After 9 hrs, half of the media was removed and replaced with fresh medium containing Gm (0.1 mg/ml final concentration), BIF (˜1 μM final concentration), or both compounds. The biofilm was quantitated after an additional 14 hrs of incubation.
We predicted that addition of purified BIF might potentiate the effects of antimicrobial compounds. To test this hypothesis, we pre-formed a biofilm of P. aeruginosa by growing the bacteria for 9 hrs by growth in minimal M63 medium supplemented with arginine (0.4%) in 96 well dishes. The preformed biofilms were then treated with BIF alone or BIF plus gentamycin (Gm) at 0.1 mg/ml final concentration. At the concentrations tested, BIF (˜1 μM) and Gm (0.1 mg/ml) had no effect on pre-formed biofilms of P. aeruginosa when these compounds were used individually (FIG. 10).

## gentamycin [Gm]
  effect on pre-formed biofilms of P. aeruginosa: no effect

Source: US20020123077A1, “Novel compounds capable of modulating biofilms” (priority 2000, published 2002)
